# Experimental data reported in patent USRE32333E, “A-21978 Antibiotics and process for their production” (priority 1985, dated 1987).
# Values joined by “and” are separate entries in the source; they are usually repeats but may differ in a detail not shown here. Equal entries are not always repeated. Where two headings read alike, the source gives them in different places.
# Key:
# [1] = system: Staphylococcus aureus 3055; test: MIC, standard agar-dilution test (Table XI); assay type: cell-based; settings: aerobic, S. aureus 3055, sodium salt form
# [2] = system: Group D Streptococcus 282; test: MIC, standard agar-dilution test (Table XI); assay type: cell-based; settings: aerobic, sodium salt form
# [3] = system: Streptococcus pyogenes C203; test: MIC, standard agar-dilution test (Table XI); assay type: cell-based; settings: aerobic, S. pyogenes C203, sodium salt form
# [4] = system: Streptococcus pneumoniae Park I; test: MIC, standard agar-dilution test (Table XI); assay type: cell-based; settings: aerobic, S. pneumoniae Park I, sodium salt form
# [5] = system: Viridans Streptococcus 9943; test: MIC, standard agar-dilution test (Table XI); assay type: cell-based; settings: aerobic, sodium salt form
# [6] = system: Neisseria gonorrhoeae 111076-4; test: MIC, standard agar-dilution test (Table XI); assay type: cell-based; settings: aerobic, N. gonorrhoeae 111076-4, sodium salt form
# [7] = system: Staphylococcus aureus 3055; test: MIC, standard broth-dilution test (Table XII); assay type: cell-based; settings: aerobic, S. aureus 3055
# [8] = system: Group D Streptococcus 282; test: MIC, standard broth-dilution test (Table XII); assay type: cell-based; settings: aerobic
# [9] = system: Streptococcus pyogenes C203; test: MIC, standard broth-dilution test (Table XII); assay type: cell-based; settings: aerobic, S. pyogenes C203
# [10] = system: Streptococcus pneumoniae Park I; test: MIC, standard broth-dilution test (Table XII); assay type: cell-based; settings: aerobic, S. pneumoniae Park I
# [11] = system: Viridans Streptococcus 9943; test: MIC, standard broth-dilution test (Table XII); assay type: cell-based; settings: aerobic
# [12] = system: Staphylococcus aureus; test: MIC against clinical isolates, ICS agar-dilution (Table XIII); assay type: cell-based; settings: 10 clinical isolates, bracket = number of isolates with this MIC or range
# [13] = system: Viridans Streptococcus; test: as above; assay type: cell-based; settings: 2 clinical isolates, bracket = number of isolates with this MIC or range
# [14] = system: Actinomyces israelii; test: MIC against anaerobic bacteria, standard agar-dilution (Table XIV); assay type: cell-based; settings: anaerobe
# [15] = system: Clostridium septicum; test: as above; assay type: cell-based; settings: anaerobe
# [16] = system: Eubacterium aerofaciens; test: as above; assay type: cell-based; settings: anaerobe
# [17] = system: Peptococcus asaccharolyticus; test: as above; assay type: cell-based; settings: anaerobe
# [18] = system: Peptococcus prevoti; test: as above; assay type: cell-based; settings: anaerobe
# [19] = system: Peptostreptococcus anaerobius; test: as above; assay type: cell-based; settings: anaerobe
# [20] = system: Peptostreptococcus intermedius; test: as above; assay type: cell-based; settings: anaerobe
# [21] = system: Propionibacterium acnes; test: as above; assay type: cell-based; settings: anaerobe
# [22] = system: Bacteroides fragilis; test: as above; assay type: cell-based; settings: anaerobe
# [23] = system: Fusobacterium symbiosum; test: as above; assay type: cell-based; settings: anaerobe
# [24] = system: Fusobacterium necrophorum; test: as above; assay type: cell-based; settings: anaerobe
# [25] = system: Staphylococcus aureus; test: MIC, agar dilution (Table XV); assay type: cell-based
# Description: (§1) ^1 MIC = minimum inhibitory concentration (μg/ml), agar dilution
# [26] = system: Streptococcus pneumoniae; test: MIC, agar dilution (Table XV); assay type: cell-based
# Description: as §1
# [27] = system: Streptococcus pyogenes; test: MIC, agar dilution (Table XV); assay type: cell-based
# Description: as §1
# [28] = system: Staphylococcus aureus; test: Experimental bacterial infection in mice, ED50; assay type: in vivo; settings: S. aureus infection, two doses, subcutaneous administration
# Protocol: (§2) When two doses of test compound were administered to mice in illustrative infections, the activity observed as measured as an ED50 value [effective dose in mg/kg to protect fifty percent of the test animals: See Warren Wick, et al., J. Bacteriol, 81, 233-235 (1961)].
# [29] = system: Streptococcus pneumoniae; test: Experimental bacterial infection in mice, ED50; assay type: in vivo; settings: S. pneumoniae infection, two doses, subcutaneous administration
# Protocol: as §2
# [30] = system: Streptococcus pyogenes; test: Experimental bacterial infection in mice, ED50; assay type: in vivo; settings: S. pyogenes infection, two doses
# Protocol: as §2
# [31] = system: Streptococcus faecalis (Guze); test: In vitro susceptibility (MIC) of the S. faecalis Guze strain; assay type: cell-based
# Description: ^1 In vitro susceptibility of the S. faecalis Guze strain
# [32] = Electrometric titration in 66% aqueous dimethylformamide; assay type: physicochemical; settings: 66% DMF, Na salt forms; factors: two determinations
# [33] = system: Clostridium perfringens; settings: anaerobe, agar-dilution
# [34] = Mouse
# [35] = Rat, IV
# [36] = system: Micrococcus luteus; test: Paper-disc agar-diffusion bioassay; settings: individual factors, Na salts
# [37] = system: Streptococcus faecalis (Guze); test: Streptococcus faecalis descending rat pyelonephritis test; settings: 1.0 mg/kg x 7 subcutaneous; for Percent of Rats Cured: cure = kidney counts less than 10^2 per g; for Percent of Rats with a 4-Log Titer Decrease: once daily, kidney titer vs infected controls
# [38] = system: Staphylococcus epidermidis; test: MIC against clinical isolates, ICS agar-dilution (Table XIII); assay type: cell-based; settings: 12 clinical isolates, bracket = number of isolates with this MIC or range
compound,measurement,setting,value
CCC(C)CCCCCCCCC(=O)NC(Cc1c[nH]c2ccccc12)C(=O)NC(CC(N)=O)C(=O)NC(CC(=O)O)C(=O)NC1C(=O)NCC(=O)NC(CCCN)C(=O)NC(CC(=O)O)C(=O)NC(C)C(=O)NC(CC(=O)O)C(=O)NCC(=O)NC(CO)C(=O)NC(C(C)CC(=O)O)C(=O)NC(CC(=O)c2ccccc2N)C(=O)OC1C (stereo not drawn) [Factor C3],MIC,[1],0.06 µg/mL
same,MIC,[2],0.13 µg/mL
same,MIC,[3],0.25 µg/mL
same,MIC,[4],0.13 µg/mL
same,MIC,[5],0.5 µg/mL
same,MIC,[6],4.0 µg/mL
same,MIC,[7],0.13 µg/mL
same,MIC,[8],0.13 µg/mL
same,MIC,[9],0.13 µg/mL
same,MIC,[10],.5 µg/mL
same,MIC,[11],32.0 µg/mL
same,Minimum Inhibitory Concentration,[12],0.06 to 0.12 µg/mL
same,Minimum Inhibitory Concentration,[13],0.5 µg/mL
same,MIC,[14],1.0 µg/mL
same,MIC,[15],1.0 µg/mL
same,MIC,[16],4 µg/mL
same,MIC,[17],1.0 µg/mL
same,MIC,[18],< 0.5 µg/mL
same,MIC,[19],1.0 µg/mL
same,MIC,[20],< 0.5 µg/mL
same,MIC,[21],1.0 µg/mL
same,MIC,[22],> 128 µg/mL
same,MIC,[23],16 µg/mL
same,MIC,[24],32 µg/mL
same,MIC,[25],0.06 µg/mL
same,MIC,[26],0.03 µg/mL
same,MIC,[27],0.06 µg/mL
same,ED50,[28],0.08 mg/kg
same,ED50,[29],0.09 mg/kg
same,ED50,[30]; oral administration,66 mg/kg
same,ED50,[30]; subcutaneous administration,0.032 mg/kg
same,MIC,[31],0.13 µg/mL
same,pKa Values (first group),[32],5.73 and 5.75
same,pKa Values (second group),[32],7.54 and 7.58
same,MIC,[33],8 µg/mL
same,LD50,[34]; IV,< 50 mg/kg
same,LD50,[34]; SC,70 to 75 mg/kg
same,LD50,[35],< 160 mg/kg
same,Bioassay (Micrococcus luteus),[36],803 units/mg
same,Percent of Rats Cured,[37],78
same,Percent of Rats with a 4-Log Titer Decrease,[37],78
CCC(C)CCCCCCC(=O)N[C@@H](Cc1c[nH]c2ccccc12)C(=O)NC(CC(N)=O)C(=O)N[C@@H](CC(=O)O)C(=O)N[C@@H]1C(=O)NCC(=O)N[C@@H](CCCN)C(=O)N[C@@H](CC(=O)O)C(=O)N[C@H](C)C(=O)N[C@@H](CC(=O)O)C(=O)NCC(=O)N[C@H](CO)C(=O)N[C@@H]([C@H](C)CC(=O)O)C(=O)N[C@@H](CC(=O)c2ccccc2N)C(=O)O[C@@H]1C (stereo in doubt) [Factor C1],MIC,[1],0.5 µg/mL
same,MIC,[2],1.0 µg/mL
same,MIC,[3],0.13 µg/mL
same,MIC,[4],0.13 µg/mL
same,MIC,[5],0.5 µg/mL
same,MIC,[6],16.0 µg/mL
same,MIC,[7],1.0 µg/mL
same,MIC,[8],2.0 µg/mL
same,MIC,[9],0.5 µg/mL
same,MIC,[10],2.0 µg/mL
same,MIC,[11],32.0 µg/mL
same,Minimum Inhibitory Concentration,[12],0.5 µg/mL
same,Minimum Inhibitory Concentration,[38],0.13 to 0.25 µg/mL
same,MIC,[14],4 µg/mL
same,MIC,[15],4 µg/mL
same,MIC,[16],16 µg/mL
same,MIC,[17],4 µg/mL
same,MIC,[18],2 µg/mL
same,MIC,[19],2 µg/mL
same,MIC,[20],4 µg/mL
same,MIC,[21],8 µg/mL
same,MIC,[22],> 128 µg/mL
same,MIC,[23],> 128 µg/mL
same,MIC,[24],64 µg/mL
same,MIC,[25],0.5 µg/mL
same,MIC,[26],0.13 µg/mL
same,MIC,[27],0.13 µg/mL
same,ED50,[28],0.22 mg/kg
same,ED50,[29],0.3 mg/kg
same,ED50,[30]; oral administration,93 mg/kg
same,ED50,[30]; subcutaneous administration,0.064 mg/kg
same,MIC,[31],1.0 µg/mL
same,pKa Values (first group),[32],5.7 and 5.9
same,MIC,[33],16 µg/mL
same,LD50,[34]; IV,> 250 mg/kg
same,LD50,[34]; SC,> 365 mg/kg
same,LD50,[35],479 ± 32 mg/kg
same,Bioassay (Micrococcus luteus),[36],1663 units/mg
same,Percent of Rats Cured,[37],50
same,Percent of Rats with a 4-Log Titer Decrease,[37],50
